Entries after “also recorded” stand apart in the source; their conditions may differ.
Legend:
calf thymus DNA = assay: Calf-thymus DNA titration (absorption hypochroism); format: binding; details: MA series: pH 7.0 phosphate buffer at 37° C.
Protocol: FIG. 20 is a graph of the titration of MA_AuPr (1.1a) with calf-thymus DNA in aqueous pH 7 phosphate buffer at 37° C.
The hypochroism of the absorption band of the complex at 383 nm was monitored as a function of added ctDNA. […] Ka is the equilibrium binding constant in M^−1, Ct is the total Au(III) complex concentration, and s is the binding site size.

topoisomerase I = biological target: T1, topoisomerase I (Homo sapiens, UniProt P11387); assay: Topoisomerase I poison/inhibitor EB gel assay; format: biochemical; details: compared with CPT (camptothecin)
T1 sequence (P11387 1-765): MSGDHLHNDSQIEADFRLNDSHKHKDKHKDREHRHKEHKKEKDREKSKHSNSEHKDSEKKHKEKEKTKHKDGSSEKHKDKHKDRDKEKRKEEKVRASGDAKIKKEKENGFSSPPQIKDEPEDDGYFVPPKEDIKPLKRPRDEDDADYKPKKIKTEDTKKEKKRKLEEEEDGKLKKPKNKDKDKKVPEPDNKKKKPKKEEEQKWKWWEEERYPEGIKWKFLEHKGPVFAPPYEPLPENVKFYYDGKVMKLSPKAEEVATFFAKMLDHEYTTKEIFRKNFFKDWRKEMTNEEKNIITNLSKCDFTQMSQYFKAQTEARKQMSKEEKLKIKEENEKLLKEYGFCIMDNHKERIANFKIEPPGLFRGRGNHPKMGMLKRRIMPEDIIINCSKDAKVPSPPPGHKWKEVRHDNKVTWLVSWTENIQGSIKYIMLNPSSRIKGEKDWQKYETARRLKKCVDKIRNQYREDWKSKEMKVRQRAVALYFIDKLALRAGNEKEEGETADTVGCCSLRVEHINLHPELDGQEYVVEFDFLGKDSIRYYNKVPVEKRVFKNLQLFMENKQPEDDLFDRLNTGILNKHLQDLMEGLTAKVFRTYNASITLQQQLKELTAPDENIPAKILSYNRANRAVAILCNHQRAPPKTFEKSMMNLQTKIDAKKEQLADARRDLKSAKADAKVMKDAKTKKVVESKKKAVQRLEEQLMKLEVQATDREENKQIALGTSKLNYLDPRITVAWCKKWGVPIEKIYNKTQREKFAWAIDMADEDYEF
Protocol: The compound MA_AuPr clearly targets topoisomerase II if the statistical analysis of the NCI data for a range of drugs shown in FIG. 13 is correct. MA_AuPr was therefore assayed for its action against topoisomerase II in vitro using TopoGEN's standard protocol over a wide range of test agent concentrations (0.005 to 500 μM) in order to obtain direct experimental proof for the apparent cellular target of the compound to ensure that a fundamental understanding of the mechanism of action of this new class of Au(III) compounds exists. These experiments were performed by the company TopoGEN and at the University of Central Florida. The DNA cleavage experiments were performed in vitro using purified topoisomerase I and II enzymes and supercoiled plasmid DNA as the substrate. The controls that were used in the experiment were linear marker DNA as well as reactions without the gold(III) complex and high concentrations of VP16. The compound VP16 (etoposide) is a commercially available DNA intercalator chemotherapeutic agent, widely used in the treatment of lung and testicular cancers as well as lymphomas. […]

[1] = tested on: 60 human cancer cell lines; assay: NCI-60 one-dose screen; format: cell-based; details: single dose 10 μM
Protocol: The gold(III) complexes of this invention were screened by the National Cancer Institute (NCI, USA) against their panel of 60 different human cancer cell lines. These screens initially entail a one-dose test for the compound at a high concentration (10 μM; e.g. FIGS. 5, 6 and 7). Compounds with a good cytotoxicity profile in the one-dose screen are then subjected to a five-dose screen for the full panel of sixty human cancer cell lines (the so-called 5-dose NCI-60 screen). In the full five-dose screen, the compound concentration is varied in five doses from 10^−8 M to 10^−4 M in order to establish a dose-response function of percentage cell growth versus the concentration of the test agent. […] Similar data will shortly be available for compounds 1.1Y^1b and 1.5Y^1a as these derivatives are in 5-dose screens currently at the NCI.
The results of one-dose NCI-60 screens are noteworthy and merit some discussion as they quickly indicate activity profiles, cell-line specificity, and general cytotoxicity for the test agents across multiple human cancer cell lines. FIGS. 5, 6, and 7 set out the one-dose screening results for MA_AuPr (FIG. 5), KA_AumacroPr (FIG. 6), and KA_AuMelmPr (FIG. 7) obtained by the NCI. These three compounds are the parent derivatives that are representative of the three new types of gold(III) Schiff base chelate relevant to this invention. All other compounds synthesized as part of this invention have been similarly analyzed.

plasma protein = assay: Plasma protein binding; format: in vitro ADME; details: LC-MS
Text: (§1) This is why binding to DNA of the intact chelate occurs (FIGS. 14 and 20). However, it is noteworthy that hydrolysis of a Au(III)-Npyrrole bond is a reaction that may be catalyzed by enzymes in plasma and could account for the plasma instability of MA_AuPr.

[2] = Hydrolysis in aqueous solution; format: physicochemical; details: aqueous / phosphate buffered aqueous solutions
Text: as §1

human cancer cell lines = assay: Cytotoxicity summary (NCI-60 or independent cytotoxicity screen), Scheme 19; format: cell-based

Structure (SMILES): C1=NCCCN=Cc2ccc[n]2[Au+][n]2cccc21.[Cl-] [MA_AuPr, 2,2′-{propane-1,3-diylbis[nitrilo(E)methylylidene]}bis(pyrrol-1-ido)gold(III) chloride]
- Ka (calf thymus DNA) (calf thymus DNA): 2.05(2) × 10^5 M^−1
- activity against topoisomerase I (topoisomerase I): inactivity; also recorded: not a topoisomerase I poison
- one-dose screening result [1]: leukemia, breast, and colon cancer cell lines are inherently more susceptible
- Plasma protein binding (plasma protein): did not bind to plasma protein; also recorded: No binding - drug
- hydrolysis [2]: did not show hydrolysis
- Cytotoxicity (human cancer cell lines): active

— patent publication US9346832B2, “Gold complexes for use in the treatment of cancer” (University of Kwazulu-Natal, priority 2010, dated 2016)
